Read-outs that look alike come from different tables or passages of the source.
How the values were obtained:
Human venous whole blood = assay: Human whole blood IFN-γ assay; type: cell-based; conditions: human whole blood, read-out: INFg Whole Blood Normalized Agonist EC50;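 note: blood from healthy donors exposed to compound for 1 h before stimulation with anti-CD3 and anti-CD28 at 1 µg/mL each, IFN-γ quantified in supernatant by AlphaLISA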
human DGKα = target: T1, human DGKα (Homo sapiens, UniProt P23743); assay: DGKα LIPGLO assay (extruded liposome substrate), in vitro DGK inhibition; type: biochemical; conditions: read-out: DGKa LIPGLO IC50
T1 construct: TVMV protease cleavage site (C); Hexa-His (C); made in house; host or cells: Sf9 insect cells (baculovirus, Bac-to-Bac)

human DGKζ = target: T2, human DGKζ (Homo sapiens, UniProt Q13574); assay: DGKζ LIPGLO assay (extruded liposome substrate), in vitro DGK inhibition; type: biochemical; conditions: read-out: DGKz LIPGLO IC50
T2 construct: TVMV protease cleavage site (C); Hexa-His (C); made in house; host or cells: Sf9 insect cells (baculovirus, Bac-to-Bac)

[1] = Homo sapiens, 24 h, normalized to 3 μM reference compound with anti-CD3 plus anti-CD28 as 100% activation
[2] = normalized to 3 μM reference compound with anti-CD3 plus anti-CD28 as 100% activation
[3] = anti-CD3 plus anti-CD28, 24 hours, 3 μM reference compound = 100% activation
[4] = Homo sapiens, 24 h, anti-CD3 plus anti-CD28, 24 hours, 3 μM reference compound = 100% activation

T2 sequence (Q13574 with tags, fused parts or gaps isoform Q13574-4): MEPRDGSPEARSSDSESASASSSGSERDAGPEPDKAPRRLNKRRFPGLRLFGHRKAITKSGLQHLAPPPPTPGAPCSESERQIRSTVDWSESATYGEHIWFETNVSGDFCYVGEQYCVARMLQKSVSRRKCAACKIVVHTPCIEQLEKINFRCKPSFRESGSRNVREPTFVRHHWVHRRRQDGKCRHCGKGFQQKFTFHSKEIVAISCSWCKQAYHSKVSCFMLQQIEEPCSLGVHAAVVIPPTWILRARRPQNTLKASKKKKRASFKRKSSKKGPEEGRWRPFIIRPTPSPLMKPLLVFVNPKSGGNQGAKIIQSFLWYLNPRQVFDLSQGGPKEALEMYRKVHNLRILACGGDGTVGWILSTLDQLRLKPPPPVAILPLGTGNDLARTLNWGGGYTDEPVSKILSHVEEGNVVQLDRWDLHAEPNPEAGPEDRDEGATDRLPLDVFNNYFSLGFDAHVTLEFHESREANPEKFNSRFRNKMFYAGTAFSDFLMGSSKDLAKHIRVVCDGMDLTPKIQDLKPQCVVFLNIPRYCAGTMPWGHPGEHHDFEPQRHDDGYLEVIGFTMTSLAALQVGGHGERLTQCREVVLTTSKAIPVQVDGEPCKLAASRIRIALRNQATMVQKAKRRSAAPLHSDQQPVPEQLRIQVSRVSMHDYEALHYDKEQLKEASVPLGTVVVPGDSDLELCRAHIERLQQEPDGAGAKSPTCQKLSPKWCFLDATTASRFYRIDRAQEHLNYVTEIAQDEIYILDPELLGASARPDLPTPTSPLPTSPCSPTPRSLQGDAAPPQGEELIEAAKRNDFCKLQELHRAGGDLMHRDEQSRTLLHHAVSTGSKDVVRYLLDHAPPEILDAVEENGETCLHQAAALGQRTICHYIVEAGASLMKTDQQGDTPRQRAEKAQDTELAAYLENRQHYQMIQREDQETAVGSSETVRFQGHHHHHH
T1 sequence (P23743 with tags, fused parts or gaps): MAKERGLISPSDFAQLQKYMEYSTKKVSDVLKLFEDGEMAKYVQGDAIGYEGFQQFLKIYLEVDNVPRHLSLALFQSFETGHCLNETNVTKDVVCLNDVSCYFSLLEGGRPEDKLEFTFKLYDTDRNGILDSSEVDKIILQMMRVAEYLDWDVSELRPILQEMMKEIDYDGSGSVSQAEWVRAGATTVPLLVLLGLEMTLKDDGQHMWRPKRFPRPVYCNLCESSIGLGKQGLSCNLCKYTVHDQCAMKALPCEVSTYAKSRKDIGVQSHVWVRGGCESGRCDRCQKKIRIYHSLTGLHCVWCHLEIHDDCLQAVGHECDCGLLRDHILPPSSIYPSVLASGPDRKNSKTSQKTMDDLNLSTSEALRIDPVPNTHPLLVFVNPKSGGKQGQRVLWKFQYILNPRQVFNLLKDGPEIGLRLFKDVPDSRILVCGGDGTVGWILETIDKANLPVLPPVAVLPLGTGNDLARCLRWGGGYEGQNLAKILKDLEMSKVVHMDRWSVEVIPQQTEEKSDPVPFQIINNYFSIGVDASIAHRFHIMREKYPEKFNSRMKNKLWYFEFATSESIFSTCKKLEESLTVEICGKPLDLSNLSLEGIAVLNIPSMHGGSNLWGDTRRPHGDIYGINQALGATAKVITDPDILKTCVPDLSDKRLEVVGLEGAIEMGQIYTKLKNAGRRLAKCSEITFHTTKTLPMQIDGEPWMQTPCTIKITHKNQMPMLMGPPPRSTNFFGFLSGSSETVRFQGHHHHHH

| IC50 (human DGKα; liposome (LIPGLO) assay) | IC50 (human DGKζ; liposome (LIPGLO) assay) | IC50 (human DGKα; DGKα liposome (LIPGLO) assay) | IC50 (human DGKζ; DGKζ liposome (LIPGLO) assay) | SMILES | EC50 (Human venous whole blood; [1]) | EC50 (Human venous whole blood; [2]) | EC50 (Human venous whole blood; [3]) | EC50 (Human venous whole blood; [4]) |
| --- | --- | --- | --- | --- | --- | --- | --- | --- |
| 3.4 µM | 1.1 µM | – | – | CC(=O)NC[C@@H]1CN(c2cc(=O)n(C)c3ccc(C#N)nc23)[C@@H](C)CN1C(c1ccc(F)cc1)c1ccc(F)cc1 [Example 1165, N-(((2R,5S)-1-(bis(4-fluorophenyl)methyl)-4-(6-cyano-1-methyl-2-oxo-1,2-dihydro-1,5-naphthyridin-4-yl)-5-methylpiperazin-2-yl)methyl)acetamide] | 0.24 µM | – | – | – |
| 0.81 µM | 2.5 µM | – | – | C[C@@H]1CN(c2cc(=O)n(C)c3ccc(C#N)nc23)[C@@H](C)CN1C(c1ccc(F)cc1)c1c(F)cc(F)cc1F (single isomer, unassigned) [Example 692] | – | 0.68 µM | – | – |
| 0.46 µM | 0.32 µM | – | – | CC[C@@H]1CN(c2cc(=O)n(C)c3ccc(C#N)nc23)[C@@H](C)CN1Cc1ccc(F)cc1F [Example 1077] | 0.14 µM | – | – | – |
| 65 µM | 2.9 µM | – | – | COCCOc1cc(C(C)N2C[C@H](C)N(c3cc(=O)n(C)c4ccc(C#N)nc34)C[C@H]2C)ccc1OC (single isomer, unassigned) [Example 1303] | 20 µM | – | – | – |
| 1.5 µM | 7 µM | – | – | C[C@@H]1CN(c2c(C#N)c(=O)n(C)c3ccc(C#N)nc23)CCN1C(c1ccc(F)cc1)c1cnsc1 (stereo partly drawn) [Example 1028] | 2.8 µM | – | – | – |
| – | – | 0.049 µM | 0.62 µM | C[C@@H]1CN(c2cc(=O)n(C)c3ccc(C#N)nc23)[C@@H](C)CN1C(c1ccc(F)cc1)c1nc(C(F)F)no1 (stereo partly drawn) [Example 744] | – | – | 0.31 µM | – |
| 79 µM | 0.24 µM | – | – | Cc1c(F)ccc(C(C)N2C[C@H](C)N(c3cc(=O)n(C)c4ccc(C#N)nc34)C[C@H]2C)c1Cl (single isomer, unassigned) [Example 433] | 1.3 µM | – | – | – |
| 0.28 µM | 0.024 µM | – | – | CCC(c1ccc(OC(C)C)cc1)N1C[C@H](C)N(c2cc(=O)n(C)c3ccc(C#N)nc23)C[C@H]1CC (single isomer, unassigned) [Example 1447] | – | 0.05 µM | – | – |
| 7.6 µM | 3 µM | – | – | C[C@@H]1CN(c2cc(=O)n(C)c3ccc(C#N)nc23)[C@@H](C)CN1C(c1ccc(F)cc1)c1cccc(S(C)(=O)=O)c1 (single isomer, unassigned) [Example 689] | – | 1.5 µM | – | – |
| 34 µM | 53 µM | – | – | C[C@@H]1CN(c2cc(=O)n(C)c3ccc(C#N)nc23)[C@@H](C)CN1Cc1cnoc1 [Example 1428] | 20 µM | – | – | – |
| – | – | 0.25 µM | 5.1 µM | C[C@@H]1CN(c2c(C#N)c(=O)n(C)c3ccc(C#N)nc23)CCN1C(c1ccc(F)cc1)c1ccc(C(F)(F)F)cn1 (single isomer, unassigned) [Example 897] | – | – | 13 µM | – |
| – | – | 0.48 µM | 0.24 µM | C[C@@H]1CN(c2cc(=O)n(C)c3ccc(C#N)nc23)[C@@H](C)CN1C(c1ccc(F)cc1)c1nc(N2CCOCC2)no1 (stereo partly drawn) [Example 750] | – | – | 0.15 µM | – |
| – | – | 0.26 µM | 8.6 µM | CC(c1ccc(F)cc1)N1CCN(c2c(C#N)c(=O)n(C)c3ccc(C#N)nc23)C[C@H]1C (single isomer, unassigned) [Example 957] | – | – | 1.7 µM | – |
| 4.3 µM | 3.4 µM | – | – | COc1ccc(C(c2cccc(F)c2)N2C[C@H](C)N(c3cc(=O)n(C)c4ccc(C#N)nc34)C[C@H]2C)nc1 (single isomer, unassigned) [Example 686] | – | 0.56 µM | – | – |
| 0.1 µM | 0.15 µM | – | – | COCC(F)(F)C(c1ccc(F)cc1)N1C[C@H](C)N(c2cc(=O)n(C)c3ccc(C#N)nc23)C[C@H]1C (single isomer, unassigned) [Example 1312] | 0.33 µM | – | – | – |
| 14 µM | 1.8 µM | – | – | C[C@@H]1CN(c2cc(=O)n(C)c3ccc(C#N)nc23)[C@@H](C)CN1C(c1ccc(F)cc1)C1CCS(=O)(=O)CC1 (single isomer, unassigned) [Example 1300] | 7 µM | – | – | – |
| 0.22 µM | 2.5 µM | – | – | C[C@@H]1CN(c2cc(=O)n(C)c3ccc(C#N)nc23)[C@@H](C)CN1C(c1ccc(Cl)cc1)c1ccccn1 (single isomer, unassigned) [Example 382] | – | 2.6 µM | – | – |
| 5.5 µM | 19 µM | – | – | C[C@@H]1CN(c2cc(=O)n(C)c3ccc(C#N)nc23)[C@@H](C)CN1C(c1c(F)cc(O)cc1F)C(F)(F)F (single isomer, unassigned) [Example 592] | 3.6 µM | – | – | – |
| 1.1 µM | 3.6 µM | – | – | C[C@@H]1CN(c2cc(=O)n(C)c3ccc(C#N)nc23)[C@@H](C)CN1C(c1ccccc1)c1ccc(Cl)cc1 (single isomer, unassigned) [Example 670] | – | 2.8 µM | – | – |

| IC50 (human DGKα; liposome (LIPGLO) assay) | IC50 (human DGKζ; liposome (LIPGLO) assay) | IC50 (human DGKα; DGKα liposome (LIPGLO) assay) | IC50 (human DGKζ; DGKζ liposome (LIPGLO) assay) | SMILES | EC50 (Human venous whole blood; [1]) | EC50 (Human venous whole blood; [2]) | EC50 (Human venous whole blood; [3]) | EC50 (Human venous whole blood; [4]) |
| --- | --- | --- | --- | --- | --- | --- | --- | --- |
| 0.15 µM | 2 µM | – | – | C[C@H]1CN(C(c2ccc(F)cc2)c2ccon2)[C@H](CO)CN1c1cc(=O)n(C)c2ccc(C#N)nc12 (single isomer, unassigned) [Example 1391] | – | 0.7 µM | – | – |
| 24 µM | 0.53 µM | – | – | Cc1ccc(C(c2cccc3c2OCCCO3)N2C[C@H](C)N(c3cc(=O)n(C)c4ccc(C#N)nc34)C[C@H]2C)nc1 (single isomer, unassigned) [Example 451] | – | 7.6 µM | – | – |
| 1.6 µM | 0.99 µM | – | – | CC[C@H]1CN(C(C)c2ccc(F)c(F)c2)[C@H](C)CN1c1cc(=O)n(C)c2ccc(C#N)nc12 (single isomer, unassigned) [Example 1140] | – | 3.4 µM | – | – |
| – | – | 0.41 µM | 1.3 µM | C[C@@H]1CN(c2c(C#N)c(=O)n(C)c3ccc(C#N)nc23)[C@@H](C)CN1C(c1ccc(F)cc1)c1nc(C2CC2)no1 (single isomer, unassigned) [Example 860] | – | – | – | 0.72 µM |
| 1.7 µM | 15 µM | – | – | CC(c1ccc(F)cn1)N1C[C@H](C)N(c2cc(=O)n(C)c3ccc(C#N)nc23)C[C@H]1C (single isomer, unassigned) [Example 641] | – | 5.9 µM | – | – |
| – | – | 1.5 µM | 4.6 µM | Cc1ccc(F)cc1CN1CCN(c2c(C#N)c(=O)n(C)c3ccc(C#N)nc23)C[C@H]1C [Example 1001] | – | – | – | 4.7 µM |
| – | – | 0.98 µM | 5.8 µM | C[C@@H]1CN(c2c(C#N)c(=O)n(C)c3ccc(C#N)nc23)CCN1C(c1ccc(F)cc1)c1ccccn1 (single isomer, unassigned) [Example 919] | – | – | 1.4 µM | – |
| 1.3 µM | 2.9 µM | – | – | C[C@@H]1CN(c2cc(=O)n(C)c3ccc(C#N)nc23)[C@@H](C)CN1C(c1ccc(F)cc1)c1cnn(C)c1 (single isomer, unassigned) [Example 702] | – | 4.7 µM | – | – |
| – | – | 0.92 µM | 2 µM | C[C@@H]1CN(c2c(C#N)c(=O)n(C)c3ccc(C#N)nc23)[C@@H](C)CN1C(c1ccc(F)cc1)c1ncccc1F (single isomer, unassigned) [Example 820] | – | – | – | 2.2 µM |
| 51 µM | 130 µM | – | – | C[C@@H]1CN(c2cc(=O)n(C)c3ccc(C#N)nc23)[C@@H](C)CN1Cc1ccc(P(C)(C)=O)cc1 [Example 1289] | 20 µM | – | – | – |
| 0.47 µM | 23 µM | – | – | C[C@@H]1CN(c2cc(=O)n(C)c3ccc(C#N)nc23)[C@@H](C)CN1C(c1ccccn1)c1ccc(F)cc1F (single isomer, unassigned) [Example 683] | – | 1.5 µM | – | – |
| 1.9 µM | 18 µM | – | – | COc1ccc(C(C)N2C[C@H](C)N(c3cc(=O)n(C)c4ccc(C#N)nc34)C[C@H]2C)nc1 (single isomer, unassigned) [Example 645] | – | 17 µM | – | – |
| 6.5 µM | 1.3 µM | – | – | COC[C@@H]1CN(c2cc(=O)n(C)c3ccc(C#N)nc23)[C@@H](C)CN1C(c1ccc(F)cc1)c1ccc(C#N)cc1 (single isomer, unassigned) [Example 1158] | – | 0.35 µM | – | – |
| – | – | 2.4 µM | 0.51 µM | CCc1ccccc1C(c1ccc(F)cc1)N1CCN(c2c(C#N)c(=O)n(C)c3ccc(C#N)nc23)C[C@H]1C (stereo partly drawn) [Example 876] | – | – | 2.2 µM | – |
| 1.6 µM | 1.8 µM | – | – | C[C@@H]1CN(c2cc(=O)n(C)c3ccc(C#N)nc23)[C@@H](C)CN1C(c1ccc(OC(F)(F)F)cc1F)C1CC1 (single isomer, unassigned) [Example 480] | 4.9 µM | – | – | – |
| 2.1 µM | 7.7 µM | – | – | CC(C)c1nc(CN2C[C@H](C)N(c3cc(=O)n(C)c4ccc(C#N)nc34)C[C@H]2C)no1 [Example 1432] | 20 µM | – | – | – |
| 7.9 µM | 1.1 µM | – | – | CC(c1ccc(F)c(Cl)c1)N1C[C@H](C)N(c2cc(=O)n(C)c3ccc(C#N)nc23)C[C@H]1C (single isomer, unassigned) [Example 1257] | – | 1.7 µM | – | – |
| 0.27 µM | 0.12 µM | – | – | CC[C@@H]1CN(c2cc(=O)n(C)c3ccc(C#N)nc23)[C@@H](C)CN1C(c1ccc(F)cc1)c1ccc(C(F)(F)F)cn1 (single isomer, unassigned) [Example 1106] | – | 0.52 µM | – | – |
| – | – | 1.9 µM | 1.3 µM | C[C@@H]1CN(c2c(C#N)c(=O)n(C)c3ccc(C#N)nc23)CCN1C(c1ccccc1)c1ccc(F)cc1 (single isomer, unassigned) [Example 878] | – | – | 0.57 µM | – |

Reference: US10669272B2, “Substituted naphthyridinone compounds useful as T cell activators” (BRISTOL-MYERS SQUIBB COMPANY, priority 2018, dated 2020)
